In data set [1] the test system is B16F10 cells. The data set is described as follows: Melanin content in B16F10 cells. It is filed as cell-based, Mouse. As to the method: (§1) Mouse B16F10 and Human 501Mel melanoma cells were cultured in Dulbecco's modified Eagle's medium (DMEM) supplemented with 7% Fetal Bovine Serum and 1% Penicillin/Streptomycin. Human MNT1 melanoma cells were cultured as described (Yasumoto et al., 2004). Normal Human Melanocytes were isolated from foreskin obtained after phimosis surgery. Patient consent was not required because French laws consider tissue left over from postectomy as discarded material. Melanocytes were cultured in MCDB medium as described (Bonet et al., 2017). Cells were tested every 4 weeks for […] presence. […] Cells were transfected with 50 nM siRNAs to SLC7A5, MITF or control siRNAs (ON-TARGETplus, Dharmacon) using HiPerfect transfection reagent (Qiagen, France). When indicated, Forskolin (20 μM) and IBMX (100 μM) were added to induce pigmentation on B16F10 cells. 48 hours later, medium was removed, and cells were used for western blot, quantitative PCR, melanin content analyses, immunofluorescence or brightfield imaging. Cells were detached with 0.05% Trypsin-EDTA solution (Thermo Scientific, France) and solubilized in NaOH 0.5N. Optical density was measured at 405 nm using melanin standard as a reference. Melanin content was normalized to the protein content.

Data set [2] has as its system normal human melanocytes (NHM). Briefly: Melanin production in normal human melanocytes. As to conditions: pigmented normal human melanocytes. The data set is classed as cell-based. The procedure:
as §1, with “were” for “were transfected with 50 nM siRNAs to SLC7A5, MITF or control siRNAs (ON-TARGETplus, Dharmacon) using HiPerfect transfection reagent (Qiagen, France). When indicated, Forskolin (20 μM) and IBMX (100 μM) were added to induce pigmentation on B16F10 cells. 48 hours later, medium was removed, and cells were used for western blot, quantitative PCR, melanin content analyses, immunofluorescence or brightfield imaging. Cells were”

Data set [3] deals with MNT1 human melanoma cells. Briefly: Melanin production in MNT1 human melanoma cells. The data set is classed as cell-based. As to the method:
as §1, with “were” for “were transfected with 50 nM siRNAs to SLC7A5, MITF or control siRNAs (ON-TARGETplus, Dharmacon) using HiPerfect transfection reagent (Qiagen, France). When indicated, Forskolin (20 μM) and IBMX (100 μM) were added to induce pigmentation on B16F10 cells. 48 hours later, medium was removed, and cells were used for western blot, quantitative PCR, melanin content analyses, immunofluorescence or brightfield imaging. Cells were”

Data set [4] has as its target T1, tyrosinase (Mus musculus, UniProt P11344).
T1 sequence (P11344 19-533): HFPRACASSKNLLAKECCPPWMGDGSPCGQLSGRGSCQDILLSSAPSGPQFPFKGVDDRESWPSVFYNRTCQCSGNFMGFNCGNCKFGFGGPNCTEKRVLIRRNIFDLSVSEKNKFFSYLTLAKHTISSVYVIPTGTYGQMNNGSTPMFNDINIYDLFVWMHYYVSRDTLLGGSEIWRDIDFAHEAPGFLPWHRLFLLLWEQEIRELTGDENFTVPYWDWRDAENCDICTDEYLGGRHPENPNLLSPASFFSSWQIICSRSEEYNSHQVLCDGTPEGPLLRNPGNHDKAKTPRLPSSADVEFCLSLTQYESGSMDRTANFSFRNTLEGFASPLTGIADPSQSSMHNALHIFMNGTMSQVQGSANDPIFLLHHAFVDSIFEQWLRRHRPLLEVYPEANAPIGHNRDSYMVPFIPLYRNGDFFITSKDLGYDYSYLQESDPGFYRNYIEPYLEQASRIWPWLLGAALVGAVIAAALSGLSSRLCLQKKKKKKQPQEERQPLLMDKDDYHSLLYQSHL
The data set is described as follows: Tyrosinase (L-DOPA) activity after treatment of B16F10 cells. The data set is classed as cell-based. Details: endogenous in cells; host or cells: B16F10 melanoma cells. Conditions: B16F10 cells treated at 10 mM. As to the method:
(§2) Proteins were resuspended in 0.1M Sodium Phosphate pH 6.8, supplemented with 5 mM L-DOPA. After incubation for 1 hour at 37° C., optical density was read at 475 nm.

Data set [5] has as its system B16F10 cells. Briefly: Western blot of protein expression in B16F10 cells. It is filed as cell-based, Mouse. As to the method:
Proteins were analyzed by SDS-PAGE and transferred on PVDF membranes (Sigma, France). The antibodies used were as follow: beta-actin (ab8226), MITF (ab12039) and Tyrosinase (ab738) from Abcam, Rab27a (#69295) and HSP90 (#4874) from Cell Signaling Technologies, SLC7A5 (sc-374232) and TYRPI (sc-166857) from Santa Cruz. Signals were detected with horseradish peroxidase conjugated secondary antibodies using ECL detection kit and quantified by digital imaging (Fuji LAS4000).
For orientation: A western blot detects proteins with antibodies after separation by electrophoresis.

The target of data set [6] is T1, tyrosinase. Briefly: DOPA oxidase assay, agent added directly in cell lysates. The data set is classed as biochemical. The arrangement: when added directly in cell lysates during the DOPA oxidase assay; endogenous in cells; B16F10 by context). As to conditions: during the DOPA oxidase assay. The procedure:
as §2

The test system of data set [7] is Phototype VI Reconstructed Human Pigmented Epidermis.
Experimental: Phototype VI Reconstructed Human Pigmented Epidermis (Sterlab, France) were treated with BCH or vehicle for 7 days. 10 μm cryosections were used to visualize melanin using Fontana-Masson stain kit (Interchim, France). Images were taken with a Nikon microscope and a 20× lens. Melanin content was quantified after solubilization of epidermis in Solvable® solution (PerkinElmer, France), and melanin content was quantified as described above.
Data set [8] relates to B16F10 cells. The data set is described as follows: Cell viability / proliferation of B16F10 cells (CellTiter Aqueous One). It is filed as cell-based, Mouse. As to the method: Mouse B16F10 and Human 501Mel melanoma cells were cultured in Dulbecco's modified Eagle's medium (DMEM) supplemented with 7% Fetal Bovine Serum and 1% Penicillin/Streptomycin. Human MNT1 melanoma cells were cultured as described (Yasumoto et al., 2004). Normal Human Melanocytes were isolated from foreskin obtained after phimosis surgery. Patient consent was not required because French laws consider tissue left over from postectomy as discarded material. Melanocytes were cultured in MCDB medium as described (Bonet et al., 2017). Cells were tested every 4 weeks for […] presence. […] Cell viability was evaluated using CellTiter Aqueous One Solution Cell Proliferation Assay (Promega, France) as recommended by the supplier.

Structures are written as SMILES.

The results in this text go back to patent US20240197603A1, “METHODS AND COMPOSITIONS FOR TREATING HYPERPIGMENTATION DISORDERS” (INSERM (INSTITUT NATIONAL DE LA SANTÉ ET DE LA RECHERCHE …, priority 2021, published 2024).

What is called inhibition is the drop in the measured response relative to a control, in per cent. Higher therefore signals a strong effect.

For the molecule `NC1(C(=O)O)CC2CCC1C2` (stereo not shown) [BCH], the “inhibition of melanin production” value with B16F10 cells [1] (B16F10 cells, BCH at 5 mM) is on record as 25%. In the data set with B16F10 cells [1] (B16F10 cells, BCH at 10 mM), the “inhibition of melanin production” value was determined as 60%. The melanin production entry in data set [2] is “significantly decreased melanin production”. Besides, the melanin production entry in data set [3] is reported as “significantly decreased melanin production”. The “tyrosinase activity after treatment of cells” value at tyrosinase [4] was “did not”. In the data set on B16F10 cells [5] (Western blot, B16F10 cells), the Slc7a5 expression result is given as “did not affect Slc7a5 expression”, the “Tyrosinase or Rab27a expression” value is on record as “not affected consistently” and the Tyrp1 expression entry is “dose-dependent increase”. Also, the “conversion of LC3-I to LC3-II (autophagy)” value with B16F10 cells [5] (at 5 and 10 mM) was “induced a conversion of LC3-I to LC3-II”. At tyrosinase [6], the “tyrosinase activity, added directly in cell lysates” value is recorded as “does not inhibit tyrosinase activity”. Moreover, in data set [7], the “epidermis structure and keratinisation” value is on record as “without affecting epidermis structure or keratinisation”. In data set [7] (treated for 7 days), the “melanin content of reconstructed epidermis” value is listed as “statistically significant decrease in melanin content”; the “pigmentation of reconstructed epidermis (macroscopic, bright field images)” value is recorded as “inhibited pigmentation”; the “pigmented melanocytes in epidermis sections (Fontana Masson staining)” value is on record as “absence of pigmented melanocytes”.
On to `Nc1cc(COc2c(Cl)cc(C[C@H](N)C(=O)O)cc2Cl)c2oc(-c3ccccc3)nc2c1` [JPH203, O-[(5-amino-2-phenyl-7-benzoxazolyl)methyl]-3,5-dichloro-L-tyrosine], for which the “inhibition of pigmentation (melanin content)” value in the data set with B16F10 cells [1] (B16F10 cells, JPH203 at 10 and 50 μM, FIG. 2) is on record as “efficiently inhibited pigmentation”. In addition, in the data set on B16F10 cells [8] (JPH203 at 10 and 50 μM), the cell proliferation result is listed as “did not inhibit cell proliferation”. The “pigmentation of reconstructed epidermis (macroscopic, bright field images)” value in data set [7] (treated for 7 days) is “strong inhibition of pigmentation”.
`O=c1cc(CO)occ1O` [Kojic Acid] had an inhibition at 1000 µM in the data set with B16F10 cells [1] (Mus musculus, B16-F10) of 60%. Moreover, the cell proliferation result in the data set on B16F10 cells [8] (doses of Kojic acid that inhibit melanogenesis) is listed as “did not affect cell proliferation”.
